# Values quoted from earlier work as cited in patent US6963011B2, “N-(2-phenyl-3-aminopropyl)naphthamides” (Astrazeneca AB, priority 2000, dated 2005).
# Where two headings read alike, the source gives them in different places. Non-standard residues stand in square brackets, D forms with d. Residues, ends and D or L forms follow the SMILES beside them. *: point of attachment. Cyclohexanecarbonyl = O=C(C1CCCCC1)*
# What was measured:
# [1] = Walsh et al., Psychopharmacology 121:186-191, 1995
# [2] = not given; remark: listed apart in the source
# [3] = not given; remark: listed apart in the source
# [4] = Vassout et al., Neuropeptides 26/S1:38, 1994; only at 30 mg/kg bid
# [5] = Stratton et al., Eur. J. Pharmacol. 250:R11-12, 1993
# [6] = Walsh et al., Psychopharmacology 121:186-191, 1995
# [7] = Teixeira et al., Eur J Pharmacol 311(1):7-14, 1996
# [8] = Vassout et al., Neuropeptides 26/S1:38, 1994
SMILES,"Outcome, Light-dark box [5]","Outcome, Light-dark box [6]","Outcome, Marmoset human intruder [1]","Outcome, Elevated plus-maze [2, 7]",other results
C[C@H](NC(=O)CNC(=O)C1CCCCC1)C(=O)N[C@H](Cc1c[nH]c2ccccc12)C(=O)N[C@@H](Cc1ccccc1)C(=O)N(C)C [GR100679] (Cyclohexanecarbonyl-GA[dW]F-NMe2),anxiolytic,,,,
COC1(C[S@@+]([O-])c2ccccc2)CCN(CCc2c[nH]c3ccc(F)cc23)CC1 [GR159897],,anxiolytic,anxiolytic,,
CN(Cc1ccccc1)C(=O)[C@H](Cc1ccc2ccccc2c1)NC(=O)[C@@H]1C[C@@H](O)CN1C(=O)c1cn(C)c2ccccc12 [FK888],,,,anxiolytic,
Cc1cc(C)cc(C(=O)N2CC[C@H](NCc3ccnc4ccccc34)C[C@H]2Cc2ccccc2)c1 [CGP 49823],,,,,"Outcome, Elevated plus-maze [2, 8]: inactive; Outcome, Social interaction ([3]; File, Pharm Bio B 58(3):747-752, 1997): anxiolytic; Outcome, Social interaction test [3, 8]: anxiolytic; Outcome, Forced swim test (depression model) [4]: antidepressant"
CC(=O)NC1(c2ccccc2)CCN(CC[C@H](CN(C)C(=O)c2ccccc2)c2ccc(Cl)c(Cl)c2)CC1 [SR48968],anxiolytic,anxiolytic,anxiolytic,anxiolytic,
